One assay has as its system Raji MEK DD cells. In words: Proliferation of Raji MEK DD cells (CCK-8). The class given is cell-based, human. The following applies: 72 h, CCK-8, compared with Raji. How it is done: Figure 5 Inhibition of Erk1/2 phosphorylation by X-370 contributed to its antiproliferative activity (A-C) X-370 inhibited Erk1/2 phosphorylation via PI3K-PDK1-MEK1/2 cascade but not the PI3K-Gab1 positive feedback loop. (A) Raji and SU-DHL-6 cells were exposed to 1 μM X370 for 3 h and protein fraction from cellular membrane was separated using Native Membrane Protein Extraction Kit and probed. WCL: whole cell lysate. (B) Inhibition of PDK1 or MEK1/2 abrogated Erk1/2 phosphorylation. Cells were treated with pharmacological inhibitors of Raf (AZ 628, PLX4032), MEK1/2 (AZD6244), p90RSK (BI-D1870), PI3Kδ (X-370), PDK1 (BX-912), Akt (MK-2206), mTOR (AZD8055) or mTORC1 (Rapamycin) respectively and indicated proteins were detected. […] Raji cells were treated with 1 μM X370 for 1 h and cell lysates were immunoprecipitated with anti-PDK1 antibody and indicated proteins were detected. […] (E) Raji and Raji MEK DD cells were treated with X-370 for 72 h and cell proliferation was detected by CCK-8 assay. (F) Raji MEK DD cells were treated with X-370 and AZD6244 and cell proliferation was detected by CCK-8 assay. Data were show as mean ± SD of three independent experiments. *: p < 0.05 determined by t-tests at each data point. […]
luciferase. Raji cells expressing MEK DD or luciferase were incubated with 1 μM AZD6244 or DMSO control respectively for 72 h, and then cell viability were assessed by CCK-8 reagent. […]

The target in the next assay is T1, PIP5K1γ (Homo sapiens, UniProt O60331).
T1 construct: purchased Millipore (Kinase Profiler Services, United Kingdom)
In words: Kinase Profiler lipid kinase relative activity. The class given is biochemical. The note with it: X-370 10 μM, compared to DMSO control. As for the experimental part: (§1) Figure 1 Structure of X-370 and its inhibitory activity against lipid kinases (A) Chemical structure of X-370. (B) X-370 docked to the crystal structure of PI3Kδ. The model was generated based on the co-crystal structure of PI3Kδ and ZSTK474 (PDB ID: 2WXL). (C) IC50 of X-370 against PI3Kδ increased along with ATP concentration. […] Data was obtained from Kinase Profiler Services (Millipore, United Kingdom). Briefly, X-370 was solved in DMSO at a concentration of 10 mM, 10-point kinase inhibitory activity was measured over concentrations in a half-log dilution series started at 1000 nM with ATP at a concentration consistent with Km of each isoform of class I PI3K and IC50s were calculated. Relative kinase activity in the presence of 10 μM X-370 compared to DMSO control was measured for the rest of lipid kinases. TEXT PRINTED IN THE PICTURE: (D) X-370: IC50 (nM): 7 (Isoform: PI3Kδ); IC50 (nM): 433 (Isoform: PI3Kα); IC50 (nM): >1,000 (Isoform: PI3Kγ); IC50 (nM): >1,000 (Isoform: PI3Kβ); Relative Activity (%) X-370 (10 μM): 55 (Lipid Kinases: PI3KC2α); Relative Activity (%) X-370 (10 μM): 63 (Lipid Kinases: PI3KC2γ); Relative Activity (%) X-370 (10 μM): 105 (Lipid Kinases: PIP4K2α); Relative Activity (%) X-370 (10 μM): 100 (Lipid Kinases: PIP5K1α); Relative Activity (%) X-370 (10 μM): 103 (Lipid Kinases: PIP5K1γ) DOUBTS OF THE COPYIST ABOUT THIS PICTURE: Panel D, left table (Isoform / IC50): no substance label is printed in this table; assigned to X-370, the only label printed in the panel (head of the right table)
(§2) In vitro kinase profile assays were analyzed by the Kinase Profiler Service (Millipore, United Kingdom) following its guidelines. A GST-tagged human p110δ and regulatory full-length p85 were co-expressed in insect cell Sf9. Recombinant protein was extracted by affinity purification. The PI3K kinase activity was determined in the increasing concentration of ATP and X-370 with PI3-Kinase HTRF™ Assay kit (Millipore) as described previously.

The next assay concerns the target T2, PIP5K1α (Homo sapiens, UniProt Q99755).
T2 construct: purchased Millipore (Kinase Profiler Services, United Kingdom)
In words: Kinase Profiler lipid kinase relative activity. The class given is biochemical. The note with it: X-370 10 μM, compared to DMSO control. How it is done: as §1, §2

Another assay deals with T3, PI3KC2γ (Homo sapiens, UniProt O75747).
T3 construct: purchased Millipore (Kinase Profiler Services, United Kingdom)
Nature of the assay: Kinase Profiler lipid kinase relative activity. The following applies: X-370 10 μM, compared to DMSO control. Type of assay: biochemical. As for the experimental part:
as §1, §2

For another assay, the target named is T4, PIP4K2α (Homo sapiens, UniProt P48426).
T4 construct: purchased Millipore (Kinase Profiler Services, United Kingdom)
In words: Kinase Profiler lipid kinase relative activity. The class given is biochemical. The note with it: X-370 10 μM, compared to DMSO control. As for the experimental part:
as §1, §2

A further assay concerns the target T5, PI3KC2α (Homo sapiens, UniProt O00443).
T5 construct: purchased Millipore (Kinase Profiler Services, United Kingdom)
Nature of the assay: Kinase Profiler lipid kinase relative activity. The class given is biochemical. The following applies: X-370 10 μM, compared to DMSO control. How it is done:
as §1, §2

For a further assay, the target named is T6, PI3Kα (Homo sapiens, UniProt P42336).
T6 construct: purchased Millipore (Kinase Profiler Services, United Kingdom)
Nature of the assay: Kinase Profiler lipid kinase IC50. The class given is biochemical. The note with it: ATP at Km of the isoform; 10-point half-log dilution from 1000 nM. How it is done: as §1, §2

The target in the next assay is T7, PI3Kγ (Homo sapiens, UniProt P48736).
T7 construct: purchased Millipore (Kinase Profiler Services, United Kingdom)
Nature of the assay: Kinase Profiler lipid kinase IC50. The class given is biochemical. The note with it: ATP at Km of the isoform; 10-point half-log dilution from 1000 nM. How it is done:
as §1, §2

A further assay concerns the target T8, PI3Kβ (Homo sapiens, UniProt P42338).
T8 construct: purchased Millipore (Kinase Profiler Services, United Kingdom)
In words: Kinase Profiler lipid kinase IC50. Type of assay: biochemical. The note with it: ATP at Km of the isoform; 10-point half-log dilution from 1000 nM. As for the experimental part: as §1, §2

Assay [1] deals with human B cell leukemia cells. In words: Proliferation of a panel of human B cell leukemia cells (CCK-8). Type of assay: cell-based. The following applies: 72 h, range over the cell panel, read-out: IC50s, proliferation. As for the experimental part:
Cell viability was assessed using Cell Counting Kit (CCK-8, Dojindo, Japan) following the manufacturer's protocol and OD values were measured with a Spectramax M5 plate reader (Molecular Devices, Sunnyvale, CA)[45].
Figure S3: X-370 inhibited proliferation of human B cell leukemia cells. Cells were seeded in 96 -well plate and treated with serial diluted X-370 for 72 h. cell viability was then assessed by CCK-8 reagent and inhibitory rate was calculated. […]
antiproliferative activity of X-370 against these cells. […]

T3 sequence (O75747 whole entry, species assumed): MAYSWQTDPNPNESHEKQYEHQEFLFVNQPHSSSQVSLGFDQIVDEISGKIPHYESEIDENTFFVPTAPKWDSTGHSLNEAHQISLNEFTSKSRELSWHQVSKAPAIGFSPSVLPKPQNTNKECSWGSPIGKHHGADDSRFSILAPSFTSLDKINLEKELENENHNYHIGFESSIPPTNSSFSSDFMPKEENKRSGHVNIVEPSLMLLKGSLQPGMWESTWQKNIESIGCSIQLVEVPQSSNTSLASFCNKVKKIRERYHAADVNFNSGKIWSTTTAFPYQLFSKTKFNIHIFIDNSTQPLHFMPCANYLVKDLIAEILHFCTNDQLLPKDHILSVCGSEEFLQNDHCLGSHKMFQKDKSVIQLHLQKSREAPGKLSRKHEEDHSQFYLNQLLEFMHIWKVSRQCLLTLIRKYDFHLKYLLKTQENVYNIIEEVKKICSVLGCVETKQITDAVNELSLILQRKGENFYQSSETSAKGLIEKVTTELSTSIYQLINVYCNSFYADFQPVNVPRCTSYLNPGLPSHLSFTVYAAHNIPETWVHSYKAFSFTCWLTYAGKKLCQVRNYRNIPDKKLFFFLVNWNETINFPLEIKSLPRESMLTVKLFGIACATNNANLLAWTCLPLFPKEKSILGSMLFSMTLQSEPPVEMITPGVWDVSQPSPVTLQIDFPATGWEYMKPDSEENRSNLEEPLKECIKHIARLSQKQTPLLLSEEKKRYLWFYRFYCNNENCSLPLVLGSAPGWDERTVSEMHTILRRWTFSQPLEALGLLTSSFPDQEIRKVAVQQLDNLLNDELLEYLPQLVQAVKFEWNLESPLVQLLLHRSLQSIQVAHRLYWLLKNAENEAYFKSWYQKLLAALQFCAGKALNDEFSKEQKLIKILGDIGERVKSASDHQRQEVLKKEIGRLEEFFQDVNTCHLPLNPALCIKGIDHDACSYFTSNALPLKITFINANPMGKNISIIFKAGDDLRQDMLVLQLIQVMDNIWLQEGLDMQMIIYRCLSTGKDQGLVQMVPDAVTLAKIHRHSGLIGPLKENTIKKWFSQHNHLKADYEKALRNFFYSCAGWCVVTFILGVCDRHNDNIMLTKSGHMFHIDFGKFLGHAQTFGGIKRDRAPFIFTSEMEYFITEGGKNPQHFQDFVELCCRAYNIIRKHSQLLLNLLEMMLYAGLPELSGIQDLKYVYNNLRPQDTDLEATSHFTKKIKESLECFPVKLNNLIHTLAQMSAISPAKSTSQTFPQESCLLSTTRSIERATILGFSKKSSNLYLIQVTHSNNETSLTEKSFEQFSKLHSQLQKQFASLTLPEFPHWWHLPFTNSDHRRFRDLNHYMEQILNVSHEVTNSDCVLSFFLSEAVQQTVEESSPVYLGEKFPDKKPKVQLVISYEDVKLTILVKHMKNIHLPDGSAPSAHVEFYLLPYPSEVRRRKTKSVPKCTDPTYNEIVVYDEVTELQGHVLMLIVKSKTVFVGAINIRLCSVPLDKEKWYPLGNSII
T4 sequence (P48426 whole entry): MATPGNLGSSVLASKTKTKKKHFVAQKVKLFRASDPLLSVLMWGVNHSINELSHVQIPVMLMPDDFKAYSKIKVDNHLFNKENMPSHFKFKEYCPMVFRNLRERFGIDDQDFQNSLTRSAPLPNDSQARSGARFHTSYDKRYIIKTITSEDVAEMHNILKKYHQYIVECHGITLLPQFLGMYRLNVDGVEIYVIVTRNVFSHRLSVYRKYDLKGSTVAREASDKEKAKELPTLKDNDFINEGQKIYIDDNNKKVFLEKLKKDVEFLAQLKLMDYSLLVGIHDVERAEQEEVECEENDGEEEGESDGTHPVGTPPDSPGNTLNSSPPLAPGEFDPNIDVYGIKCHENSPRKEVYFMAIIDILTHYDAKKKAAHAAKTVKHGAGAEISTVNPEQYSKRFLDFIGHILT
T1 sequence (O60331 whole entry, species assumed): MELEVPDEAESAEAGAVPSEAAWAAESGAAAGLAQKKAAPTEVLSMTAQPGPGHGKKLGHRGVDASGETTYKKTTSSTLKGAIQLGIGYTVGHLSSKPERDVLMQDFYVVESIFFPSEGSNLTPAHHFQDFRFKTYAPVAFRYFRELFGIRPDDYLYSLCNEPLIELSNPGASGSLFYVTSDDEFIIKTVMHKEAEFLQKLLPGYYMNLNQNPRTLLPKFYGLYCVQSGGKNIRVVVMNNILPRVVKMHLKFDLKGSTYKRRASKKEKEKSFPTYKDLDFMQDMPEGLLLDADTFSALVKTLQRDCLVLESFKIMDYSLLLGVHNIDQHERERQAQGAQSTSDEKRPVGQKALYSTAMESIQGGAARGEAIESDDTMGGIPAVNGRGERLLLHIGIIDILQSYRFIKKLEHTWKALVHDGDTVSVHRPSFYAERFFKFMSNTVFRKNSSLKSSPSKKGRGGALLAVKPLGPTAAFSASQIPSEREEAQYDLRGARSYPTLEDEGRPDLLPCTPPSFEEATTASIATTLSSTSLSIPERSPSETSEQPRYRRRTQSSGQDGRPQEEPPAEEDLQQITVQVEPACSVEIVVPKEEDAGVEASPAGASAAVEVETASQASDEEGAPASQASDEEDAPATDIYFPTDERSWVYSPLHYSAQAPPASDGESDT
T8 sequence (P42338 whole entry): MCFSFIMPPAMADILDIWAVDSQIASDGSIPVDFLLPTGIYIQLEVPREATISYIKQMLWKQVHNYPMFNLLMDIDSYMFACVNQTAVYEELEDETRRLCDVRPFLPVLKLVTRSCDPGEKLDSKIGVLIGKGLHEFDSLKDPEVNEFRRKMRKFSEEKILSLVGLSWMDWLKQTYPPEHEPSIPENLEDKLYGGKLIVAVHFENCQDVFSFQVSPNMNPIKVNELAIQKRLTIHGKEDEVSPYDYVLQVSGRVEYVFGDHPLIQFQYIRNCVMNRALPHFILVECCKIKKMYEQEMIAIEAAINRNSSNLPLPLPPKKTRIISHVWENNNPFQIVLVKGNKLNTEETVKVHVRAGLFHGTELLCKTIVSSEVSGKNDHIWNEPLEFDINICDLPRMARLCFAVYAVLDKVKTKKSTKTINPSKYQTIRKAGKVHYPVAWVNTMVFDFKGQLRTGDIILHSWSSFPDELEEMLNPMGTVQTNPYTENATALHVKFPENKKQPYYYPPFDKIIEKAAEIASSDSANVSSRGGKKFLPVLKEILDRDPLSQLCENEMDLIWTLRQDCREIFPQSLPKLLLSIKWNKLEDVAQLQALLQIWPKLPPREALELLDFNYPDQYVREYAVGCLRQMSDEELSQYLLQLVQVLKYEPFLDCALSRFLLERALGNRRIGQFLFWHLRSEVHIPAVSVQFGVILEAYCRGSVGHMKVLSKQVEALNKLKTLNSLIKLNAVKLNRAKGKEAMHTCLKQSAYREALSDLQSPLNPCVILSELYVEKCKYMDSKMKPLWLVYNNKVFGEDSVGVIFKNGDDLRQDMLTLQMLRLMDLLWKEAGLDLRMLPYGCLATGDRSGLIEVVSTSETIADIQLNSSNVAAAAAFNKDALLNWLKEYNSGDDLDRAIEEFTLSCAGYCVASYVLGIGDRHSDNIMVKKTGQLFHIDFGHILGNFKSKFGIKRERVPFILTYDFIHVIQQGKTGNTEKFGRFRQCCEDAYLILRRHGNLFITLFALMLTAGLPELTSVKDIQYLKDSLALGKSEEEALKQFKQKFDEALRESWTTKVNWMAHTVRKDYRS
T8 sequence (P27986 whole entry partner): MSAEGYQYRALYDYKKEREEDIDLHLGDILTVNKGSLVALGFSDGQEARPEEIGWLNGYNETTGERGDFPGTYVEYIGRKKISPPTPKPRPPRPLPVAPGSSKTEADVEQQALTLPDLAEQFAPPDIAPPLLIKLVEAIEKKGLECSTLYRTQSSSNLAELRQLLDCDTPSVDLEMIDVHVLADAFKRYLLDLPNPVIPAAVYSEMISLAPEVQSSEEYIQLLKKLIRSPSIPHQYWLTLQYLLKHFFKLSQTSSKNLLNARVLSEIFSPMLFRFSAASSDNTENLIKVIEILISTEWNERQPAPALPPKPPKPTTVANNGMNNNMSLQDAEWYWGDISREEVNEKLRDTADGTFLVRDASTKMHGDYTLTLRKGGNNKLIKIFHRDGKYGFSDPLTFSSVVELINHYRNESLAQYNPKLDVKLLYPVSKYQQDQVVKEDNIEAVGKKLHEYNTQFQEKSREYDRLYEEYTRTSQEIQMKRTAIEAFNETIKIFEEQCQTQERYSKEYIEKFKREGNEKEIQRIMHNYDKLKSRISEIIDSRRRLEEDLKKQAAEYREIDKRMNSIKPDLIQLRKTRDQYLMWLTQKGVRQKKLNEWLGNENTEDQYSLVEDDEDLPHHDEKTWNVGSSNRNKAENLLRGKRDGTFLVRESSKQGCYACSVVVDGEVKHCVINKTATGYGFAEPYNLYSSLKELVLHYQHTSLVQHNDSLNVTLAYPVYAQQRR
T2 sequence (Q99755 whole entry, species assumed): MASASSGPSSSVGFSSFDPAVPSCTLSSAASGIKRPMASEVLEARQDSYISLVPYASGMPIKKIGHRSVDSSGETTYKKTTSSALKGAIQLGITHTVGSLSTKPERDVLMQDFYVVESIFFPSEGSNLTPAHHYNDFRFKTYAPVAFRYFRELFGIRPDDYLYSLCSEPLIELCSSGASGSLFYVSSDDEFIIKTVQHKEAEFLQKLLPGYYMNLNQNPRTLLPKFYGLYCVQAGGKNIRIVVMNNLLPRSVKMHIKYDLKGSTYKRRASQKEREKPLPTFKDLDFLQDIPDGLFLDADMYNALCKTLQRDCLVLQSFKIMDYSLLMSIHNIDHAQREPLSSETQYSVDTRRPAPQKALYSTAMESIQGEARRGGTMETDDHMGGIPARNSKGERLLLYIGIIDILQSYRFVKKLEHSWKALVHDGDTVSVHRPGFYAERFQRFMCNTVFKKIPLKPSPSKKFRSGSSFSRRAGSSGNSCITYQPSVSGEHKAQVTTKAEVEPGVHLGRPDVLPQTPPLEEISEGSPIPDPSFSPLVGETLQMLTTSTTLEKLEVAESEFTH

With `O=C(N1CCCC1)N1CCC(n2cnc3c(-n4c(C(F)F)nc5ccccc54)nc(N4CCOCC4)nc32)CC1` [X-370], the “effect of MEK DD expression on inhibition of viability” value in the assay with Raji MEK DD cells is “attenuated inhibition of viability”. In addition, the activity at 10 µM on PIP5K1γ was found to be 103%; on PIP5K1α, 100%; on PI3KC2γ, 63%; on PIP4K2α it was 105%; at PI3KC2α, 55%. The IC50 at PI3Kα is 433 nM; on PI3Kγ it was > 1000 nM; against PI3Kβ, > 1000 nM; in assay [1], 40 to 6300 nM.

The values are drawn from publication PMC4279406, “Simultaneous targeting of PI3Kδ and a PI3Kδ-dependent MEK1/2-Erk1/2 pathway for therapy in pediatric B-cell acute lymphoblastic leukemia” (Oncotarget, 2014).
